Reference: patent US20070021360A1, “Compositions, formulations and kit with anti-sense oligonucleotide and anti-inflammatory steroid and/or obiquinone for treatment of respiratory and lung disesase” (priority 2001, published 2007)

What was measured:
adenosine A1 receptor = target: T1, adenosine A1 receptor (Oryctolagus cuniculus, UniProt P34970); assay: Adenosine A1 receptor binding ([3H]DPCPX) in airway smooth muscle membranes of treated rabbits; conditions: for A1 receptor Bmax: [3H]DPCPX
T1 construct: Airway smooth muscle tissue was dissected from each rabbit and a membrane fraction prepared; from tissue; host or cells: rabbit airway smooth muscle, crude plasma membranes
T1 sequence (P34970 1-328): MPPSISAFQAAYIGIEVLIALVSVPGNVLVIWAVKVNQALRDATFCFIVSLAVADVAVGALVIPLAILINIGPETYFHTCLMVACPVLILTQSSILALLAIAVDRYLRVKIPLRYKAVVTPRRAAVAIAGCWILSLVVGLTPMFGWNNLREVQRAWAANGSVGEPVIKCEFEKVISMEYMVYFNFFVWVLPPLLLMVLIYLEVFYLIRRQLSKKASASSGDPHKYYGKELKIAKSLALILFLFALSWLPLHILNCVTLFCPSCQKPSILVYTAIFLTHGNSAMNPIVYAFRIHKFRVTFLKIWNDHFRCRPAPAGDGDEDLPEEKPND
Source text: At the conclusion of the cross-over experiment of Example 3 above, airway smooth muscle from all rabbits was quantitatively analyzed for adenosine A1 receptor number. As a control for the specificity of the anti-sense oligonucleotide, adenosine A2 receptors, which should not have been affected, were also quantified. Airway smooth muscle tissue was dissected from each rabbit and a membrane fraction prepared according to the method of Kleinstein et al. (Kleinstein, J. and Glossrnann, H., Naunyn-Schrniedeberg's Arch Pharmacol. 305: 191-200 (1978)), the relevant portion of which is hereby incorporated in its entirety by reference, with slight modifications. Crude plasma membrane preparations were stored at −70 EC until the time of assay. Protein content was determined by the method of Bradford (M. Bradford, Anal. Biochem. 72, 240-254 (1976), the relevant portion of which is hereby incorporated in its entirety by reference). Frozen plasma membranes were thawed at room temperature and were incubated with 0.2 U/ml adenosine deaminase for 30 minutes at 37 EC to remove endogenous adenosine. The binding of [^3H] DPCPX (A1 receptor-specific) or [^3H] CGS-21680 ([…]) was measured as previously described by Ali et al. (Ali, S. et al., J. Pharmacol. Exp. Ther. 268, Ara. J. Physiol 266, L271-277 (1994), the relevant portion of which is hereby incorporated in its entirety by reference). […] There was no change in adenosine A2 receptor number, as assayed by specific binding of the A2 receptor-specific agonist 2-[p-(2-carboxyethyl)-phenethylamino]-5′-(N-ethylcarboxamido) adenosine (CGS-21680). This is illustrated in Table 6 below.
(§1) A membrane fraction was prepared according to the method of Ali et al. (Ali, S., et al., Am. J. Resp. Crit Care Med. 149: 908 (1994), the relevant section relating to the preparation of the membrane fraction is incorporated in its entirety hereby by reference). The protein content was determined by the method of Bradford and plasma membranes were incubated with 0.2 U/ml adenosine deaminase for 30 minutes at 37 EC to remove endogenous adenosine. See, Bradford, M. M. Anal. Biochem. 72, 240-254 (1976), the relevant portion of which is hereby incorporated in its entirety by reference. The binding of [^3H]DPCPX, [^3H]NPC17731, or [^3H]CGS-21680 was measured as described by Jarvis et al. See, Jarvis, M. F., et al., Pharmacol. Exptl. Ther. 251, 888-893 (1989), the relevant portion of which is fully incorporated herein by reference.

B2 bradykinin receptor = target: T2, B2 bradykinin receptor (Oryctolagus cuniculus, UniProt Q28642); assay: Bradykinin B2 receptor binding ([3H]NPC 17731) in airway smooth muscle membranes of treated rabbits; parameters: species or system rabbit; conditions: for B2 receptor Bmax: [3H]NPC 17731
T2 construct: Tissue from airway smooth muscle was dissected to primary, secondary and tertiary bronchi from rabbits; from tissue; host or cells: rabbit airway smooth muscle membranes
T2 sequence (Q28642 1-367): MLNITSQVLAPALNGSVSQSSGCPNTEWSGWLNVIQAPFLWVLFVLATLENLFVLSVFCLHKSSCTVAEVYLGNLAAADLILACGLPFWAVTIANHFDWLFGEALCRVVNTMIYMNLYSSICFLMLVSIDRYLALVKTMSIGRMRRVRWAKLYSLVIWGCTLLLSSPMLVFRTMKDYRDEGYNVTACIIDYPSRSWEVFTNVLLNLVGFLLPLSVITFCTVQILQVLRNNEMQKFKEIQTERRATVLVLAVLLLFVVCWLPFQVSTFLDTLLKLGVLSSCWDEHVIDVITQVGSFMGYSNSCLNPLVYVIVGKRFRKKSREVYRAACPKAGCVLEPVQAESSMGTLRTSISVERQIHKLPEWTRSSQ
Experimental: as §1

[1] = rabbits treated with 2 mg oligo
[2] = rabbits treated with 20 mg oligo

“5′-GTAGCAGGCGGGGATGGGGGC-3′ [HAdA1MM1, reference compound]” was tested, and the Kd (adenosine A1 receptor; Kd of [3H]DPCPX in membranes of rabbits treated with 2 mg oligo) was 0.37 ± 0.033 nM, the Kd (adenosine A1 receptor; Kd of [3H]DPCPX in membranes of rabbits treated with 20 mg oligo) was 0.34 ± 0.027 nM and the “A1 receptor Bmax” value (adenosine A1 receptor; [1]) was 51.8 ± 3.88 fmol. The “A1 receptor Bmax” value (adenosine A1 receptor; [2]) was 52.0 ± 3.64 fmol, the “A1-Specific Binding” value (adenosine A1 receptor; airway smooth muscle membranes after cross-over experiment, mean (n = 8) ± SEM) was 1105 ± 48 and the Kd (B2 bradykinin receptor; Kd of [3H]NPC 17731 in membranes of rabbits treated with 2 mg oligo) was 0.38 ± 0.028 nM. The Kd (B2 bradykinin receptor; Kd of [3H]NPC 17731 in membranes of rabbits treated with 20 mg oligo) was 0.35 ± 0.024 nM, the “B2 receptor Bmax” value (B2 bradykinin receptor; [1]) was 14.6 ± 1.02 fmol and the “B2 receptor Bmax” value (B2 bradykinin receptor; [2]) was 14.0 ± 1.0 fmol.
